We go through ten compounds from patent US5462965A, “Use of heterocyclic amino-alcohol compounds for treatment of CNS diseases” (GD Searle & Co., priority 1992, dated 1995).

For the first assay, the system named is NMDA receptor-ionophore complex (polyamine domain / NMDA ionophore). The assay can be described thus: Spermidine (polyamine)-stimulated [3H]TCP binding, functional model of coupling of the polyamine domain to the NMDA ionophore. Conditions: 50 μM; spermidine-stimulated [3H]TCP binding, rat cortex. How it is done:
Polyamine-stimulated [^3 H]TCP: Crude synaptic ("buffy coat") membranes were prepared from freshly dissected cerebral cortices. Membrane preparations were extensively washed employing 3 freeze-thaw cycles. The final pellet was stored at -70° C. for 1-7 days prior to assay. On the day of assay, the membrane pellet was washed twice by resuspension and centrifugation (45,000 g, 10 min. ). […] Assays were terminated by rapid vacuum filtration through GF/B filter paper (pre-soaked in 0.5% aqueous polyethyleneimine) in a Brandel M-48R Cell Harvester and thorough washing with ice-cold 5 mM Tris HCl pH 7.7.
Consider `CC(CCCc1ccccc1)NC(C)C(O)c1ccc2c(c1)CCCS2` (centres unmarked) [Compound 42], for which the “SPERMIDINE [3H] TCP IC50 (class symbol: inhibitory at 50 μM)” value was “+”.
Still for that read-out and setting: next, `CC(NCCCCOc1ccccc1)C(O)c1ccc2c(c1)CCCS2` (centres unmarked) [Compound 24]: “+”; `CC(NCCCCc1ccccc1)C(O)c1ccc2c(c1)CCS2` (single isomer, unassigned) [Compound 184]: “+”.
On the same count and under the same terms, next, `C[C@H](NCCCCc1ccccc1)[C@@H](O)c1ccc2c(c1)CCS2` (relative stereo) [Compound 183]: “+”; `CC(NCCCCc1ccccc1)C(O)c1ccc2c(c1)CCCS2` (centres unmarked) [Compound 2]: “+”.
In the case of `CC(NCCCc1ccccc1)C(O)c1ccc2c(c1)CCCS2` (centres unmarked) [Compound 75], the “SPERMIDINE [3H] TCP IC50 (class symbol: inhibitory at 50 μM)” value is “+”.
For `CC(C(O)c1ccc2c(c1)CCS2)N1CCC(Cc2ccccc2)CC1` (centres unmarked) [Compound 186], the “SPERMIDINE [3H] TCP IC50 (class symbol: inhibitory at 50 μM)” value is “+”.

Still in this assay, the particulars now being: spermidine-stimulated [3H]TCP binding, rat cortex; at least two independent experiments.
`C[C@H](NCCCCc1ccccc1)[C@H](O)c1ccc2c(c1)CCS2` (relative stereo) [Compound 7] registered an IC50 of 8.2 µM.
For `CC(NCCCCc1ccccc1)C(O)c1ccc2c(c1)CCS2` (single isomer, unassigned) [Compound 185], the IC50 turned out to be 59 µM.
Same read-out and setting: under `CC(CCc1ccccc1)NC(C)C(O)c1ccc(O)cc1` (centres unmarked) [Nylidrin, reference compound] stands 73 µM.

A further assay deals with polyamine domain of the NMDA receptor-complex. The assay can be described thus: Binding of [125I]ifenprodil to rat cortical membranes (polyamine domain interaction). Conditions: rat cortical membranes; mean ± s.e.m., n = 3 or 4; read-out: [125I] IFENPRODIL Kd. As for the experimental part: The NMDA receptor-ionophore complex consists of a number of interacting domains, including one for polyamines where ifenprodil binds to exert its noncompetitive antagonism. Ifenprodil was iodinated with Na^125 I/chloramine-T, purified and its binding characterized.
(§1) Membranes were prepared from freshly dissected brains of adult male Sprague-Dawley rats (175-250 g).
^125 I]Ifenprodil: Crude membranes were prepared from freshly dissected cerebral cortices as described elsewhere [P. M. Beart et al, Neurosci. Lett., 124, 187-189 (1991)]. Briefly, assays were performed in 5 mM Tris HCl pH 7.7 containing [^125 I]ifenprodil (20,000 dpms, ~20 pM) and cortical membranes (0.5 mg wet wt.) in a final volume of 0 5 mL Incubations were for 30 min at 20° C., in triplicate, employing 12 concentrations of competing drugs. Non-specific binding was defined with 10 mM spermine. Assays were terminated by rapid filtration through GF/B filter paper and washing [Beart et al, Id., (1991)].
Binding data were analyzed by the iterative curve fitting programs EBDA and LIGAND as fully described elsewhere [Beart et al, Id., (1989)].
Turning to `CC(CCCc1ccccc1)NC(C)C(O)c1ccc2c(c1)CCCS2` (centres unmarked) [Compound 42], the Kd is 2.7 ± 0.4 µM.
Turning to `CC(NCCCCOc1ccccc1)C(O)c1ccc2c(c1)CCCS2` (centres unmarked) [Compound 24], the Kd is 3.7 ± 1.1 µM.
Turning to `C[C@H](NCCCCc1ccccc1)[C@H](O)c1ccc2c(c1)CCS2` (relative stereo) [Compound 7], the Kd stood at 3.6 ± 0.3 µM.
`CC(NCCCCc1ccccc1)C(O)c1ccc2c(c1)CCS2` (single isomer, unassigned) [Compound 185]: the Kd is 3.5 ± 1.1 µM.
Same read-out and setting: under `CC(NCCCCc1ccccc1)C(O)c1ccc2c(c1)CCS2` (single isomer, unassigned) [Compound 184] stands 6.3 ± 1.8 µM; under `C[C@H](NCCCCc1ccccc1)[C@@H](O)c1ccc2c(c1)CCS2` (relative stereo) [Compound 183], 9.3 ± 5.4 µM.
As to `CC(NCCCCc1ccccc1)C(O)c1ccc2c(c1)CCCS2` (centres unmarked) [Compound 2], the Kd turned out to be 9.3 ± 5.5 µM.
`CC(CCc1ccccc1)NC(C)C(O)c1ccc(O)cc1` (centres unmarked) [Nylidrin, reference compound]: the Kd turned out to be 30 ± 8.5 µM.
The same measure, in the same setting: next, `CC(NCCCc1ccccc1)C(O)c1ccc2c(c1)CCCS2` (centres unmarked) [Compound 75]: 5 ± 1.4 µM.
Consider `CC(C(O)c1ccc2c(c1)CCS2)N1CCC(Cc2ccccc2)CC1` (centres unmarked) [Compound 186], for which the Kd is 6.7 ± 1.1 µM.

The next assay relates to sigma site. The experiment in a line: Sigma site binding: inhibition of R(+)-[3H]3-PPP binding. Also noted: species or system rat. Conditions: in words. As for the experimental part:
as §1
R(+-^3 H]3-PPP: Crude membranes were prepared from whole brain (minus cerebellum) as described previously [P. M. Beart et al, J. Neurochem., 53, 779-788 (1989)]. A filtration binding assay was employed under similar conditions to those of Largent et al (1986) with 3 nM R (+)-[^3 H]-3-PPP and a 90 min. incubation at 25° C. (Beart et al, 1989). Non-specific binding was defined with 10 μ1,3-di(2-tolyl)guanidine (DTG).
Binding data were analyzed by the iterative curve fitting programs EBDA and LIGAND as fully described elsewhere [Beart et al, Id., (1989)]. Results obtained from experiments examining spermidine-stimulated binding of ^3 H]TCP were analyzed by the program FLEXIFIT [V. Guardabasso et al, FASEB J., 2, 209-215 (1988)] which iteratively fits data to a sigmoidal model providing estimates of IC50 and slope for the drug under study.
On to `CC(NCCCCc1ccccc1)C(O)c1ccc2c(c1)CCS2` (single isomer, unassigned) [Compound 185], for which the “inhibition of binding of R(+)-[3H]3-PPP” value is reported as “very potent inhibitors”.
`CC(CCc1ccccc1)NC(C)C(O)c1ccc(O)cc1` (centres unmarked) [Nylidrin, reference compound]: the “model describing the interaction with the site labelled by R(+)-[3H]3-PPP” value was “better described by a two-site model”.
With `CC(C(O)c1ccc2c(c1)CCS2)N1CCC(Cc2ccccc2)CC1` (centres unmarked) [Compound 186], the “inhibition of binding of R(+)-[3H]3-PPP” value is “very potent inhibitors”.

The assay is the same for the next values; noted with them: in words; computer-assisted analyses.
With `C[C@H](NCCCCc1ccccc1)[C@H](O)c1ccc2c(c1)CCS2` (relative stereo) [Compound 7], the “affinity for the high affinity sigma site” value is on record as “appreciable affinity”.
The same measure, in the same setting: next, `CC(NCCCCc1ccccc1)C(O)c1ccc2c(c1)CCS2` (single isomer, unassigned) [Compound 185]: “appreciable affinity”; `CC(NCCCCc1ccccc1)C(O)c1ccc2c(c1)CCS2` (single isomer, unassigned) [Compound 184]: “appreciable affinity”.

The assay is the same for the next values; noted with them: one site fit; *one experiment; read-out: KG = Dissociation constant for one site fit.
Regarding `CC(NCCCCOc1ccccc1)C(O)c1ccc2c(c1)CCCS2` (centres unmarked) [Compound 24], the Kd worked out at 0.39 µM.
Same read-out and setting: under `CC(NCCCCc1ccccc1)C(O)c1ccc2c(c1)CCCS2` (centres unmarked) [Compound 2] stands 0.4 µM.

Staying with this assay, now noted: one site fit; pooled data, n = 2 independent experiments; read-out: KG = Dissociation constant for one site fit.
Consider `C[C@H](NCCCCc1ccccc1)[C@H](O)c1ccc2c(c1)CCS2` (relative stereo) [Compound 7], for which the Kd came out at 0.17 µM.
Still for that read-out and setting: next, `CC(NCCCCc1ccccc1)C(O)c1ccc2c(c1)CCS2` (single isomer, unassigned) [Compound 185]: 0.032 µM; `CC(NCCCCc1ccccc1)C(O)c1ccc2c(c1)CCS2` (single isomer, unassigned) [Compound 184]: 0.23 µM.
Still for that read-out and setting: next, `C[C@H](NCCCCc1ccccc1)[C@@H](O)c1ccc2c(c1)CCS2` (relative stereo) [Compound 183]: 0.45 µM.
Still for that read-out and setting: next, `CC(CCc1ccccc1)NC(C)C(O)c1ccc(O)cc1` (centres unmarked) [Nylidrin, reference compound]: 0.038 µM; `CC(NCCCc1ccccc1)C(O)c1ccc2c(c1)CCCS2` (centres unmarked) [Compound 75]: 0.34 µM; `CC(C(O)c1ccc2c(c1)CCS2)N1CCC(Cc2ccccc2)CC1` (centres unmarked) [Compound 186]: 0.03 µM.

The same assay, now with this note: two site fit, fitted better to 2 site model (P < 0.05).
`C[C@H](NCCCCc1ccccc1)[C@H](O)c1ccc2c(c1)CCS2` (relative stereo) [Compound 7]: the “% RH = Percent of high affinity binding sites for two site fit” value (“% RH = Percent” for short) came out at 66%.
Still for that read-out and setting: next, `CC(NCCCCc1ccccc1)C(O)c1ccc2c(c1)CCS2` (single isomer, unassigned) [Compound 184]: 54%; `CC(CCc1ccccc1)NC(C)C(O)c1ccc(O)cc1` (centres unmarked) [Nylidrin, reference compound]: 86%.
The same measure, in the same setting: under `CC(NCCCc1ccccc1)C(O)c1ccc2c(c1)CCCS2` (centres unmarked) [Compound 75] stands 67%.

The same assay, now with this note: two site fit, fitted better to 2 site model (P < 0.05); read-out: KH = Dissociation constant at high affinity site for two site fit.
As to `C[C@H](NCCCCc1ccccc1)[C@H](O)c1ccc2c(c1)CCS2` (relative stereo) [Compound 7], the Kd amounted to 0.044 µM.
`CC(CCc1ccccc1)NC(C)C(O)c1ccc(O)cc1` (centres unmarked) [Nylidrin, reference compound]: the Kd came out at 0.019 µM.
Still for that read-out and setting: under `CC(NCCCc1ccccc1)C(O)c1ccc2c(c1)CCCS2` (centres unmarked) [Compound 75] stands 0.086 µM.

Still in this assay, the particulars now being: two site fit, fitted better to 2 site model (P < 0.05); read-out: KL = Dissociation constant at low affinity site for two site fit.
For `C[C@H](NCCCCc1ccccc1)[C@H](O)c1ccc2c(c1)CCS2` (relative stereo) [Compound 7], the Kd worked out at 11 µM.
Regarding `CC(CCc1ccccc1)NC(C)C(O)c1ccc(O)cc1` (centres unmarked) [Nylidrin, reference compound], the Kd is 11 µM.
On the same count and under the same terms, next, `CC(NCCCc1ccccc1)C(O)c1ccc2c(c1)CCCS2` (centres unmarked) [Compound 75]: 4.3 µM.

The assay is the same for the next values; noted with them: two site fit; value in parentheses (exception to better 2 site fit).
With `CC(NCCCCOc1ccccc1)C(O)c1ccc2c(c1)CCCS2` (centres unmarked) [Compound 24], the “% RH = Percent” value stood at 63%.
With `CC(NCCCCc1ccccc1)C(O)c1ccc2c(c1)CCS2` (single isomer, unassigned) [Compound 185], the “% RH = Percent” value turned out to be 63%.
Same read-out and setting: next, `C[C@H](NCCCCc1ccccc1)[C@@H](O)c1ccc2c(c1)CCS2` (relative stereo) [Compound 183]: 84%; `CC(NCCCCc1ccccc1)C(O)c1ccc2c(c1)CCCS2` (centres unmarked) [Compound 2]: 72%; `CC(C(O)c1ccc2c(c1)CCS2)N1CCC(Cc2ccccc2)CC1` (centres unmarked) [Compound 186]: 72%.

The same assay, now with this note: two site fit; value in parentheses (exception to better 2 site fit); read-out: KH = Dissociation constant at high affinity site for two site fit.
As for `CC(NCCCCOc1ccccc1)C(O)c1ccc2c(c1)CCCS2` (centres unmarked) [Compound 24], the Kd was determined as 0.089 µM.
For the compound `CC(NCCCCc1ccccc1)C(O)c1ccc2c(c1)CCS2` (single isomer, unassigned) [Compound 185], the Kd came out at 0.0046 µM.
On the same count and under the same terms, next, `C[C@H](NCCCCc1ccccc1)[C@@H](O)c1ccc2c(c1)CCS2` (relative stereo) [Compound 183]: 0.3 µM; `CC(NCCCCc1ccccc1)C(O)c1ccc2c(c1)CCCS2` (centres unmarked) [Compound 2]: 0.15 µM; `CC(C(O)c1ccc2c(c1)CCS2)N1CCC(Cc2ccccc2)CC1` (centres unmarked) [Compound 186]: 0.0029 µM.

Still in this assay, the particulars now being: two site fit; value in parentheses (exception to better 2 site fit); read-out: KL = Dissociation constant at low affinity site for two site fit.
Turning to `CC(NCCCCOc1ccccc1)C(O)c1ccc2c(c1)CCCS2` (centres unmarked) [Compound 24], the Kd was determined as 3 µM.
On the same count and under the same terms, next, `CC(NCCCCc1ccccc1)C(O)c1ccc2c(c1)CCS2` (single isomer, unassigned) [Compound 185]: 0.3 µM.
As to `C[C@H](NCCCCc1ccccc1)[C@@H](O)c1ccc2c(c1)CCS2` (relative stereo) [Compound 183], the Kd was 130 µM.
On to `CC(NCCCCc1ccccc1)C(O)c1ccc2c(c1)CCCS2` (centres unmarked) [Compound 2], for which the Kd came out at 4.3 µM.
The same measure, in the same setting: under `CC(C(O)c1ccc2c(c1)CCS2)N1CCC(Cc2ccccc2)CC1` (centres unmarked) [Compound 186] stands 0.6 µM.

Tested on in the next assay: not given
Experiment: not given
Conditions: Arch. Int. Pharm., 1983; cited from earlier work.
Consider `C[C@H](NCCCCc1ccccc1)[C@H](O)c1ccc2c(c1)CCS2` (relative stereo) [Compound 7], for which the antihypertensive effect entry is recorded as “antihypertensive effect” and the anxiolytic activity entry is “anxiolytic activity”.
